In the CombiSolv-Exp solvation set (Vermeire and Green 2021):

Assay: solvent given as SMILES
[1] = in CCCCCCCCC=CCCCCCCCC(=O)OCC(COC(=O)CCCCCCCC=CCCCCCCCC)OC(=O)CCCCCCCC=CCCCCCCCC

CCCCCCCC
solvation free energy, 298 K (in Brc1ccccc1): -5.05 kcal/mol
solvation free energy, 298 K (in C1CCCCC1): -5.54 kcal/mol
solvation free energy, 298 K (in C1CCOC1): -5.32 kcal/mol
solvation free energy, 298 K (in C1COCCO1): -4.49 kcal/mol
solvation free energy, 298 K (in C=CCCCC): -5.39 kcal/mol
solvation free energy, 298 K (in C=CCCCCCC): -5.28 kcal/mol
solvation free energy, 298 K (in C=CCCCCCCCC): -5.23 kcal/mol
solvation free energy, 298 K (in CC1COC(=O)O1): -3.01 kcal/mol
solvation free energy, 298 K (in CC#N): -3.63 kcal/mol
solvation free energy, 298 K (in CC(=O)N(C)C): -3.96 kcal/mol
solvation free energy, 298 K (in CC(=O)O): -3.96 kcal/mol
solvation free energy, 298 K (in CC(=O)c1ccccc1): -4.29 kcal/mol
solvation free energy, 298 K (in CC(C)(C)O): -4.62 kcal/mol
solvation free energy, 298 K (in CC(C)=O): -4.41 kcal/mol
solvation free energy, 298 K (in CC(C)CC(C)(C)C): -5.32 kcal/mol
solvation free energy, 298 K (in CC(C)CCCC(C)CCCC(C)CCCCC(C)CCCC(C)CCCC(C)C): -4.83 kcal/mol
solvation free energy, 298 K (in CC(C)CCO): -4.61 kcal/mol
solvation free energy, 298 K (in CC(C)O): -4.4 kcal/mol
solvation free energy, 298 K (in CC(C)OC(C)C): -5.29 kcal/mol
solvation free energy, 298 K (in CC(Cl)Cl): -4.66 kcal/mol
solvation free energy, 298 K (in CC(O)CO): -2.84 kcal/mol
solvation free energy, 298 K (in CCBr): -5.39 kcal/mol
solvation free energy, 298 K (in CCC(C)(C)OC): -5.28 kcal/mol
solvation free energy, 298 K (in CCC(C)=O): -4.69 kcal/mol
solvation free energy, 298 K (in CCCC#N): -4.33 kcal/mol
solvation free energy, 298 K (in CCCC(=O)OCC): -4.94 kcal/mol
solvation free energy, 298 K (in CCCC(C)=O): -4.81 kcal/mol
solvation free energy, 298 K (in CCCCC): -5.43 kcal/mol
solvation free energy, 298 K (in CCCCC(CC)COC(=O)CCCCC(=O)OCC(CC)CCCC): -4.69 kcal/mol
solvation free energy, 298 K (in CCCCC(CC)COC(=O)c1ccccc1C(=O)OCC(CC)CCCC): -4.43 kcal/mol
solvation free energy, 298 K (in CCCCCC): -5.42 kcal/mol
solvation free energy, 298 K (in CCCCCC(C)=O): -4.83 kcal/mol
solvation free energy, 298 K (in CCCCCCC): -5.37 kcal/mol
solvation free energy, 298 K (in CCCCCCCCC): -5.23 kcal/mol
solvation free energy, 298 K [1]: -4.75 kcal/mol
solvation free energy, 298 K (in CCCCCCCCCC): -5.2 kcal/mol
solvation free energy, 298 K (in CCCCCCCCCCCC): -5.11 kcal/mol
solvation free energy, 298 K (in CCCCCCCCCCCCCCCC): -5.01 kcal/mol
solvation free energy, 298 K (in CCCCCCCCCCCCO): -4.65 kcal/mol
solvation free energy, 298 K (in CCCCCCCCCCO): -4.53 kcal/mol
solvation free energy, 298 K (in CCCCCCCCO): -4.62 kcal/mol
solvation free energy, 298 K (in CCCCCCOC(C)=O): -4.92 kcal/mol
solvation free energy, 298 K (in CCCCCO): -4.62 kcal/mol
solvation free energy, 298 K (in CCCCO): -4.49 kcal/mol
solvation free energy, 298 K (in CCCCOC(=O)c1ccccc1C(=O)OCCCC): -4.5 kcal/mol
solvation free energy, 298 K (in CCCCOC(C)=O): -4.85 kcal/mol
solvation free energy, 298 K (in CCCCOCCCC): -5.25 kcal/mol
solvation free energy, 298 K (in CCCO): -4.41 kcal/mol
solvation free energy, 298 K (in CCN1CCCC1=O): -4.09 kcal/mol
solvation free energy, 298 K (in CCN(CC)C(C)=O): -4.35 kcal/mol
solvation free energy, 298 K (in CCN(CC)CC): -5.5 kcal/mol
solvation free energy, 298 K (in CCNC(C)=O): -4.09 kcal/mol
solvation free energy, 298 K (in CCNC=O): -3.79 kcal/mol
solvation free energy, 298 K (in CCO): -4.3 kcal/mol
solvation free energy, 298 K (in CCOC(=O)c1ccccc1C(=O)OCC): -3.95 kcal/mol
solvation free energy, 298 K (in CCOC(C)=O): -4.71 kcal/mol
solvation free energy, 298 K (in CCOCC): -5.41 kcal/mol
solvation free energy, 298 K (in CCOCCOCCOCC): -4.65 kcal/mol
solvation free energy, 298 K (in CCOc1ccccc1): -4.77 kcal/mol
solvation free energy, 298 K (in CN1CCCC1=O): -3.77 kcal/mol
solvation free energy, 298 K (in CN1CCCCC1=O): -4.02 kcal/mol
solvation free energy, 298 K (in CN(C)C=O): -3.75 kcal/mol
solvation free energy, 298 K (in CN(C)P(=O)(N(C)C)N(C)C): -4.26 kcal/mol
solvation free energy, 298 K (in CNC=O): -3.34 kcal/mol
solvation free energy, 298 K (in CO): -3.86 kcal/mol
solvation free energy, 298 K (in COC(C)=O): -4.49 kcal/mol
solvation free energy, 298 K (in COCCO): -3.76 kcal/mol
solvation free energy, 298 K (in COCCOCCOCCOCCOC): -4.01 kcal/mol
solvation free energy, 298 K (in COc1ccccc1): -4.7 kcal/mol
solvation free energy, 298 K (in CS(C)=O): -2.79 kcal/mol
solvation free energy, 298 K (in Cc1ccc(C)cc1): -5.28 kcal/mol
solvation free energy, 298 K (in Cc1cccc(C)n1): -4.92 kcal/mol
solvation free energy, 298 K (in Cc1cccc(O)c1): -4.08 kcal/mol
solvation free energy, 298 K (in Cc1ccccc1): -5.29 kcal/mol
solvation free energy, 298 K (in Cc1ccccn1): -4.78 kcal/mol
solvation free energy, 298 K (in ClC(Cl)(Cl)Cl): -5.45 kcal/mol
solvation free energy, 298 K (in ClC(Cl)Cl): -5.32 kcal/mol
solvation free energy, 298 K (in ClCCCl): -4.71 kcal/mol
solvation free energy, 298 K (in ClCCl): -5.08 kcal/mol
solvation free energy, 298 K (in Clc1ccccc1): -5.21 kcal/mol
solvation free energy, 298 K (in FC(F)(F)C(F)(F)C(F)(F)C(F)(F)C(F)(F)C(F)(F)C(F)(F)C(F)(F)F): -3.45 kcal/mol
solvation free energy, 298 K (in FC(F)(F)C(F)(F)C(F)(F)C(F)(F)C(F)(F)C(F)(F)F): -3.52 kcal/mol
solvation free energy, 298 K (in Fc1c(F)c(F)c(F)c(F)c1F): -4.83 kcal/mol
solvation free energy, 298 K (in Fc1ccccc1): -5.11 kcal/mol
solvation free energy, 298 K (in ICI): -3.3 kcal/mol
solvation free energy, 298 K (in Ic1ccccc1): -4.74 kcal/mol
solvation free energy, 298 K (in N#CCCCCC#N): -2.96 kcal/mol
solvation free energy, 298 K (in NC=O): -1.27 kcal/mol
solvation free energy, 298 K (in NCCO): -1.74 kcal/mol
solvation free energy, 298 K (in Nc1ccccc1): -3.52 kcal/mol
solvation free energy, 298 K (in O=C1CCCCC1): -4.63 kcal/mol
solvation free energy, 298 K (in O=C1CCCO1): -3.22 kcal/mol
solvation free energy, 298 K (in O=CN1CCOCC1): -3.04 kcal/mol
solvation free energy, 298 K (in OCCCCCO): -3.06 kcal/mol
solvation free energy, 298 K (in OCCCCO): -2.87 kcal/mol
solvation free energy, 298 K (in OCCCO): -2.59 kcal/mol
solvation free energy, 298 K (in OCCOCCO): -2.35 kcal/mol
solvation free energy, 298 K (in OCCOCCOCCOCCO): -2.71 kcal/mol
solvation free energy, 298 K (in OCc1ccccc1): -3.81 kcal/mol
solvation free energy, 298 K (in S=C=S): -5.53 kcal/mol
solvation free energy, 298 K (in c1ccc2ncccc2c1): -4.22 kcal/mol
solvation free energy, 298 K (in c1ccc(COCc2ccccc2)cc1): -4.28 kcal/mol
solvation free energy, 298 K (in c1ccccc1): -5.25 kcal/mol
solvation free energy, 298 K (in c1ccncc1): -4.49 kcal/mol

CC(C)SC(C)C
solvation free energy, 298 K (in O): -1.21 kcal/mol

COc1nc(NC(C)C)nc(NC(C)C)n1
solvation free energy, 298 K (in O): -9.69 kcal/mol

CC(=O)OCC(COC(C)=O)OC(C)=O
solvation free energy, 298 K (in O): -8.84 kcal/mol

C=C(C)C1CC=C(C)CCC=C(C)CC1 (stereo not given)
solvation free energy, 298 K (in O): -0.37 kcal/mol

CCCCl
solvation free energy, 298 K (in Brc1cccc2ccccc12): -3.29 kcal/mol
solvation free energy, 298 K (in C1CCOC1): -3.88 kcal/mol
solvation free energy, 298 K (in C1CCOCC1): -3.79 kcal/mol
solvation free energy, 298 K (in C=CCCCCCCCCCCCCCC): -3.01 kcal/mol
solvation free energy, 298 K (in CC(=O)OCc1ccccc1): -3.4 kcal/mol
solvation free energy, 298 K (in CC(C)CC(C)(C)C): -3.2 kcal/mol
solvation free energy, 298 K (in CCC(C)=O): -3.68 kcal/mol
solvation free energy, 298 K (in CCCCCC): -3.37 kcal/mol
solvation free energy, 298 K (in CCCCCCC): -3.27 kcal/mol
solvation free energy, 298 K (in CCCCCCCC): -3.22 kcal/mol
solvation free energy, 298 K [1]: -3.25 kcal/mol
solvation free energy, 298 K (in CCCCCCCCCCCCCCCC): -3.01 kcal/mol
solvation free energy, 298 K (in CCCCCCCCO): -3.06 kcal/mol
solvation free energy, 298 K (in CCCCCl): -3.68 kcal/mol
solvation free energy, 298 K (in CCCCO): -3.16 kcal/mol
solvation free energy, 298 K (in CCOC(C)=O): -3.68 kcal/mol
solvation free energy, 298 K (in Cc1ccc(C)cc1): -3.58 kcal/mol
solvation free energy, 298 K (in ClC(Cl)(Cl)Cl): -3.7 kcal/mol
solvation free energy, 298 K (in ClC(Cl)Cl): -3.62 kcal/mol
solvation free energy, 298 K (in ClCCCl): -3.7 kcal/mol
solvation free energy, 298 K (in O): -0.37 kcal/mol
solvation free energy, 298 K (in O=C1CCCCC1): -3.67 kcal/mol
solvation free energy, 298 K (in [2H]O[2H]): -0.74 kcal/mol
solvation free energy, 298 K (in c1ccc2ncccc2c1): -3.35 kcal/mol

CCCCCCCC(C)=O
solvation free energy, 298 K (in NC=O): -5.43 kcal/mol
solvation free energy, 298 K (in O): -2.5 kcal/mol

CCCCC#N
solvation free energy, 298 K (in CCCCCC): -4.45 kcal/mol
solvation free energy, 298 K (in CCCCCCCCCCCCCCCC): -4.01 kcal/mol
solvation free energy, 298 K (in CCCCCCCCO): -4.89 kcal/mol
solvation free energy, 298 K (in O): -3.49 kcal/mol
solvation free energy, 298 K (in [2H]O[2H]): -3.42 kcal/mol

C1=CC=CCC=C1
solvation free energy, 298 K (in O): -0.99 kcal/mol

O=Cc1ccccc1
solvation free energy, 298 K (in CCCCCC): -5.53 kcal/mol
solvation free energy, 298 K (in CCCCCCC): -5.5 kcal/mol
solvation free energy, 298 K (in CCCCCCCCCCCCCCCC): -5.37 kcal/mol
solvation free energy, 298 K (in O): -4.02 kcal/mol

COc1ccc(N)cc1
solvation free energy, 298 K (in CC(C)CCO): -8.92 kcal/mol
solvation free energy, 298 K (in O): -7.54 kcal/mol

Cc1ccc([N+](=O)[O-])cc1
solvation free energy, 298 K (in O): -4.96 kcal/mol

OCc1ccccc1O
solvation free energy, 298 K (in O): -10.2 kcal/mol

CCCCCOC(=O)CC
solvation free energy, 298 K (in O): -2.11 kcal/mol

CCCC(C)CC (stereo not given)
solvation free energy, 298 K (in C=CCCCCCCCCCCCCCC): -4.01 kcal/mol

O=C(O)CCC(=O)O
solvation free energy, 298 K (in CC(C)O): -12.3 kcal/mol
solvation free energy, 298 K (in CCCO): -12.2 kcal/mol
solvation free energy, 298 K (in CCO): -12.6 kcal/mol
solvation free energy, 298 K (in O): -12.6 kcal/mol
solvation free energy, 298 K (in O=C1CCCCC1): -11.7 kcal/mol
